From ChEMBL document CHEMBL5634137, “2,4-Diacetylphloroglucinol (DAPG) derivatives rapidly eradicate methicillin-resistant staphylococcus aureus without resistance development by disrupting membrane” (Eur J Med Chem, 2023)
In brackets after ≈: the same amount, converted by molar mass. Activity calls are given as the source filed them. The calls are words filed in the database; no cut-off is given here.

Key:
Staphylococcus aureus [1] = test: Antibacterial activity against methicillin-resistant Staphylococcus aureus ATCC 4330 assessed as inhibition of bacterial growth incubated for 24 hrs by broth dilution method; assay type: functional
Staphylococcus aureus [2] = test: Antibacterial activity against methicillin-resistant Staphylococcus aureus ATCC 3392 assessed as inhibition of bacterial growth incubated for 24 hrs by broth dilution method; assay type: functional
Staphylococcus aureus [3] = test: Antibacterial activity against Methicillin-resistant Staphylococcus aureus USA300 assessed as inhibition of bacterial growth incubated for 24 hrs by broth dilution method; assay type: functional
Staphylococcus aureus [4] = test: Bactericidal activity against methicillin-resistant Staphylococcus aureus ATCC 3392 assessed as inhibition of bacterial growth incubated for 24 hrs by broth dilution method; assay type: functional
[5] = Cytotoxicity against human L02 cells assessed as survival rate incubated for 24 hrs by MTT assay; assay type: toxicity, cell-based; parameters: concentration or dose not given beside the values; conditions: read-out: Survival
Staphylococcus aureus [6] = test: Bactericidal against methicillin-resistant Staphylococcus aureus ATCC 4330 assessed as inhibition of bacterial growth incubated for 24 hrs by broth dilution method; assay type: functional
Klebsiella pneumoniae = test: Antibacterial activity against Klebsiella pneumoniae […] assessed as inhibition of bacterial growth incubated for 24 hrs by broth dilution method; assay type: functional
Staphylococcus aureus [7] = test: Selectivity index, ratio of MBC for bactericidal against methicillin-resistant Staphylococcus aureus ATCC 3392 to MIC for antibacterial activity against methicillin-resistant Staphylococcus aureus ATCC 3392; assay type: functional
Escherichia coli = test: Antibacterial activity against Escherichia coli ATCC 11775 assessed as inhibition of bacterial growth incubated for 24 hrs by broth dilution method; assay type: functional
[8] = Cytotoxicity against mouse RAW264.7 cells assessed as survival rate incubated for 24 hrs by MTT assay; assay type: toxicity, cell-based; parameters: concentration or dose not given beside the values; conditions: read-out: Survival
Pseudomonas aeruginosa = test: Antibacterial activity against Pseudomonas aeruginosa […] assessed as inhibition of bacterial growth incubated for 24 hrs by broth dilution method; assay type: functional
Staphylococcus aureus [9] = test: Selectivity index, ratio of MBC for bactericidal against methicillin-resistant Staphylococcus aureus ATCC 4330 to MIC for antibacterial activity against methicillin-resistant Staphylococcus aureus ATCC 4330; assay type: functional
Staphylococcus aureus [10] = test: Antibacterial activity against Methicillin-resistant Staphylococcus aureus USA300 infected in mouse skin infection model assessed as reduction in number of bacteria at 10 mg/kg, sc administered every 12 hrs for 3 days; assay type: functional; conditions: time 3.0 day

Work on `CCCCCCCCCC(=O)c1c(O)cc(O)c(C(=O)CCCCCCCCC)c1O` yielded an MIC (Staphylococcus aureus [1]) of 8 µg/mL (≈ 18.4 µM) and an MIC (Staphylococcus aureus [2]) of 8 µg/mL (≈ 18.4 µM).

In the case of `CCC(C)C(=O)c1c(O)cc(O)cc1O` (stereo not drawn), the MIC (Staphylococcus aureus [1]) is reported as 32 µg/mL (≈ 152 µM) and the MIC (Staphylococcus aureus [2]) is reported as greater than 64 µg/mL.

With `CC1(C)S[C@@H]2[C@H](NC(=O)[C@H](N)c3ccc(O)cc3)C(=O)N2[C@H]1C(=O)O` [AMOXICILLIN] the MIC (Staphylococcus aureus [3]) was 128 µg/mL (≈ 350 µM).

For `O=Cc1c(O)cc(O)c(C=O)c1O`, the MIC (Staphylococcus aureus [1]) was greater than 64 µg/mL and the MIC (Staphylococcus aureus [2]) was greater than 64 µg/mL.

`COc1cc(OC)c(C(C)=O)c(O)c1C(C)=O` gave an MIC (Staphylococcus aureus [1]) greater than 64 µg/mL and an MIC (Staphylococcus aureus [2]) greater than 64 µg/mL.

`O=C(O)c1cn(C2CC2)c2cc(N3CCNCC3)c(F)cc2c1=O` [CIPROFLOXACIN] showed an MIC (Staphylococcus aureus [1]) of 0.25 µg/mL (≈ 0.754 µM), an MIC (Staphylococcus aureus [3]) of 0.25 µg/mL (≈ 0.754 µM) and an MIC (Staphylococcus aureus [2]) of 0.25 µg/mL (≈ 0.754 µM).

`CCCCCC(=O)c1c(O)cc(O)cc1O` gave an MIC (Staphylococcus aureus [1]) of 32 µg/mL (≈ 143 µM) and an MIC (Staphylococcus aureus [2]) of 32 µg/mL (≈ 143 µM).

Work on `CCCCC(=O)c1c(O)cc(O)c(C(=O)C2CCCCC2)c1O` yielded an MBC (Staphylococcus aureus [4]) of 4 µg/mL (≈ 12.5 µM), a viability at 24 h [5] of 75% and an MBC (Staphylococcus aureus [6]) of 1 µg/mL (≈ 3.12 µM). For the same compound, the MIC (Klebsiella pneumoniae) was greater than 64 µg/mL, the “Selectivity Index” value (Staphylococcus aureus [7]) was 8 and the MIC (Staphylococcus aureus [1]) was 0.5 µg/mL (≈ 1.56 µM). It also gave an MIC (Escherichia coli) greater than 64 µg/mL, a viability at 24 h [8] of 76% and an MIC (Pseudomonas aeruginosa) greater than 64 µg/mL. For the same compound, the MIC (Staphylococcus aureus [3]) was 0.5 µg/mL (≈ 1.56 µM), the “Selectivity Index” value (Staphylococcus aureus [9]) was 2 and the MIC (Staphylococcus aureus [2]) was 0.5 µg/mL (≈ 1.56 µM).

For `CCCC(=O)c1c(O)cc(O)cc1O`, the MIC (Staphylococcus aureus [1]) was greater than 64 µg/mL and the MIC (Staphylococcus aureus [2]) was greater than 64 µg/mL.

`CCCCCCCCC(=O)c1c(O)cc(O)cc1O` gave an MIC (Staphylococcus aureus [1]) of 8 µg/mL (≈ 30 µM) and an MIC (Staphylococcus aureus [2]) of 8 µg/mL (≈ 30 µM).

`O=C(c1c(O)cc(O)cc1O)C1CCCC1` showed an MIC (Staphylococcus aureus [1]) of 64 µg/mL (≈ 288 µM) and an MIC (Staphylococcus aureus [2]) of 64 µg/mL (≈ 288 µM).

`O=C(Cc1ccccc1)c1c(O)cc(O)cc1O` showed an MIC (Staphylococcus aureus [1]) of 32 µg/mL (≈ 131 µM) and an MIC (Staphylococcus aureus [2]) greater than 64 µg/mL.

With `COc1cc(O)c(C(C)=O)c(O)c1C(C)=O` the MIC (Staphylococcus aureus [1]) was greater than 64 µg/mL and the MIC (Staphylococcus aureus [2]) was greater than 64 µg/mL.

Work on `O=C(c1c(O)cc(O)c(C(=O)C2CCC2)c1O)C1CCC1` yielded an MBC (Staphylococcus aureus [4]) of 8 µg/mL (≈ 27.6 µM), an MBC (Staphylococcus aureus [6]) of 4 µg/mL (≈ 13.8 µM) and an MIC (Klebsiella pneumoniae) greater than 64 µg/mL. The “Selectivity Index” value (Staphylococcus aureus [7]) was 4, the MIC (Staphylococcus aureus [1]) was 2 µg/mL (≈ 6.89 µM) and the MIC (Escherichia coli) was 64 µg/mL (≈ 220 µM). The MIC (Pseudomonas aeruginosa) was greater than 64 µg/mL, the MIC (Staphylococcus aureus [3]) was 1 µg/mL (≈ 3.44 µM) and the “Selectivity Index” value (Staphylococcus aureus [9]) was 2. The MIC (Staphylococcus aureus [2]) was 2 µg/mL (≈ 6.89 µM).

For `COc1cc(O)c(C(C)=O)c(OC)c1C(C)=O`, the MIC (Staphylococcus aureus [1]) was greater than 64 µg/mL and the MIC (Staphylococcus aureus [2]) was greater than 64 µg/mL.

With `O=Cc1c(O)cc(O)cc1O` [PHLOROGLUCINALDEHYDE] the MIC (Staphylococcus aureus [1]) was greater than 64 µg/mL and the MIC (Staphylococcus aureus [2]) was greater than 64 µg/mL.

`O=C(c1c(O)cc(O)cc1O)C1CCC1` gave an MIC (Staphylococcus aureus [1]) of 32 µg/mL (≈ 154 µM) and an MIC (Staphylococcus aureus [2]) of 32 µg/mL (≈ 154 µM).

For `CC(C)C(=O)c1c(O)cc(O)c(C(=O)C(C)C)c1O`, the MIC (Staphylococcus aureus [1]) was 4 µg/mL (≈ 15 µM) and the MIC (Staphylococcus aureus [2]) was 4 µg/mL (≈ 15 µM).

Work on `O=C(c1c(O)cc(O)c(C(=O)C2CCCC2)c1O)C1CCCC1` yielded an MBC (Staphylococcus aureus [4]) of 4 µg/mL (≈ 12.6 µM), a viability at 24 h [5] of 75% and an MBC (Staphylococcus aureus [6]) of 4 µg/mL (≈ 12.6 µM). The MIC (Klebsiella pneumoniae) was greater than 64 µg/mL, the “Selectivity Index” value (Staphylococcus aureus [7]) was 4 and the MIC (Staphylococcus aureus [1]) was 1 µg/mL (≈ 3.14 µM). It also gave an MIC (Escherichia coli) of 64 µg/mL (≈ 201 µM), a viability at 24 h [8] of 76% and an MIC (Pseudomonas aeruginosa) greater than 64 µg/mL. The MIC (Staphylococcus aureus [3]) was 0.5 µg/mL (≈ 1.57 µM), the “Selectivity Index” value (Staphylococcus aureus [9]) was 4 and the MIC (Staphylococcus aureus [2]) was 1 µg/mL (≈ 3.14 µM).

Work on `CC(=O)c1c(O)cc(O)c(C(C)=O)c1O` yielded an MBC (Staphylococcus aureus [4]) of 64 µg/mL (≈ 304 µM), an MBC (Staphylococcus aureus [6]) of 32 µg/mL (≈ 152 µM) and an MIC (Klebsiella pneumoniae) greater than 64 µg/mL. For the same compound, the “Selectivity Index” value (Staphylococcus aureus [7]) was 16, the MIC (Staphylococcus aureus [1]) was 8 µg/mL (≈ 38.1 µM) and the MIC (Escherichia coli) was greater than 64 µg/mL. The MIC (Pseudomonas aeruginosa) was greater than 64 µg/mL, the MIC (Staphylococcus aureus [3]) was 8 µg/mL (≈ 38.1 µM) and the “Selectivity Index” value (Staphylococcus aureus [9]) was 4. For the same compound, the MIC (Staphylococcus aureus [2]) was 4 µg/mL (≈ 19 µM).

In the case of `Cc1onc(-c2ccccc2)c1C(=O)N[C@@H]1C(=O)N2[C@@H]1SC(C)(C)[C@@H]2C(=O)O` [OXACILLIN], the Activity (Staphylococcus aureus [10]) is reported as “inactive” and the MIC (Staphylococcus aureus [3]) is reported as 16 µg/mL (≈ 39.9 µM).

Work on `CCCCCCCCC(=O)c1c(O)cc(O)c(C(=O)CCCCCCCC)c1O` yielded an MIC (Staphylococcus aureus [1]) of 2 µg/mL (≈ 4.92 µM) and an MIC (Staphylococcus aureus [2]) of 4 µg/mL (≈ 9.84 µM).

In the case of `CCCCCCC(=O)c1c(O)cc(O)cc1O`, the MIC (Staphylococcus aureus [1]) is reported as 16 µg/mL (≈ 67.1 µM) and the MIC (Staphylococcus aureus [2]) is reported as 16 µg/mL (≈ 67.1 µM).

For `CCCCCCCCCC(=O)c1c(O)cc(O)cc1O`, the MIC (Staphylococcus aureus [1]) was 32 µg/mL (≈ 114 µM) and the MIC (Staphylococcus aureus [2]) was 32 µg/mL (≈ 114 µM).

Work on `CCCCC(=O)c1c(O)cc(O)c(C(=O)C(C)C)c1O` yielded an MBC (Staphylococcus aureus [4]) of 8 µg/mL (≈ 28.5 µM), a viability at 24 h [5] of 75% and an MBC (Staphylococcus aureus [6]) of 8 µg/mL (≈ 28.5 µM). The MIC (Klebsiella pneumoniae) was greater than 64 µg/mL, the “Selectivity Index” value (Staphylococcus aureus [7]) was 4 and the MIC (Staphylococcus aureus [1]) was 2 µg/mL (≈ 7.13 µM). For the same compound, the MIC (Escherichia coli) was greater than 64 µg/mL, the viability at 24 h [8] was 76% and the MIC (Pseudomonas aeruginosa) was greater than 64 µg/mL. For the same compound, the MIC (Staphylococcus aureus [3]) was 1 µg/mL (≈ 3.57 µM), the “Selectivity Index” value (Staphylococcus aureus [9]) was 4 and the MIC (Staphylococcus aureus [2]) was 2 µg/mL (≈ 7.13 µM).

`CCCCCCCCCCCCCCCC(=O)c1c(O)cc(O)c(C(=O)CCCCCCCCCCCCCCC)c1O` gave an MIC (Staphylococcus aureus [1]) greater than 64 µg/mL and an MIC (Staphylococcus aureus [2]) greater than 64 µg/mL.
